The values that follow are results of earlier work, collected in patent publication US20210205766A1, “METHODS AND RELATED APPARATUS FOR PROVIDING A PROCESSING SOLUTION FOR A FOOD PROCESSING APPLICATION” (Zee Company, Inc., priority 2016, published 2021).

For the data set the following is noted: about half active (free), about half dissociated (bound) at pH of about 8.4.

For the substance peroxyacetic acid [PAA], the pKA result is “about 8.4”.
